One series deals with 5HT2A receptor (Homo sapiens, UniProt P28223). The series is described as follows: Competitive binding with [3H]ketanserin, human brain tissue. The note with it: for competition with labeled ketanserin for binding at the 5HT2A receptor: human brain tissue.
Another series concerns the target T1, human NTR1 (Homo sapiens, UniProt P30989).
T1 construct: expressed in transfected cells; host or cells: CHO-K1
Briefly: Competition binding with [3H]NT, membranes of CHO-K1 cells transfected with human NTR1. As to the method:
(§1) CHO-K1 cells were stably transfected with nucleic acid encoding either the human NTR1 or the rat NTR1, and cultured in 150 mm petri plates with 35 mL of Dulbecco-modified Eagle's medium containing 100 μM minimal essential medium nonessential amino acids (GIBCO) supplemented with 5% (v/v) FetalClone II bovine serum product (Hyclone Labs, Logan, Utah). CHO cells (subculture 9–19) were harvested at confluency. Briefly, the medium from each plate was removed by aspiration, and the cells washed with 6 mL of 50 mM Tris-HCl (pH 7.4) and resuspended in 5–10 mL of Tris-HCl by scraping the cells with a rubber spatula. The resuspended cells were placed into a centrifuge tube and collected by centrifugation at 300× g for five minutes at 4° C. in a GPR centrifuge (Beckman Instruments, Fullerton, Calif.). The cellular pellet (in 50 mM Tris-HCl, 1 mM EDTA, pH 7.4) was stored at […] until radioligand binding was performed.
(§2) The supernatant was decanted and discarded, and the cellular pellet was resuspended in 2 mL of Tris-HCl, 1 mM EDTA (pH 7.4) followed by homogenization with a Brinkmann Polytron at setting 6 for ten seconds. Centrifugation was repeated as above and the supernatant was decanted and discarded. The resulting final cellular pellet was resuspended in 50 mM Tris-HCl, lmM EDTA, 0.1% bovine serum albumin, and 0.2 mM bacitracin.
(§3) Incubation was at 20° C. for 30 minutes. Each reaction was terminated by addition of cold 0.9% NaCl (5×1.5 mL) followed by rapid filtration through a GF/B filter strip that had been pretreated with 0.2% polyethylenimine.

Series [1] in a line: Degradation in human plasma (HPLC peak area). The series is classed as in vitro ADME. The note with it: for half-life at 0.5 mg/mL: human. An excerpt: For the degradation studies, data were plotted in linear form as a semi-log plot with SigmaPlot for Windows Version 4.00. Linear regression on these plots provided the parameters used to calculate the half-time (t1/2) for degradation of each polypeptide. The correlation coefficient (R) for the linear regression was taken as a measure of the goodness-of-fit.

Series [2] can be described thus: Body temperature (hypothermia) in rats. The conditions noted are these: for peak body temperature reduction: 18 nmol injected into the PAG, at 30 minutes; for induction of hypothermia: intraperitoneal administration (NT64L 1 mg/kg).
Series [3] is described as follows: Hot plate test (antinociception, % MPE) in rats. The conditions noted are these: for peak % MPE value: 18 nmol injected into the PAG, at 30 minutes; for induction of antinociception (hot plate): intraperitoneal administration (NT64L 1 mg/kg). On the technique in general: Hot-plate and tail-flick tests time the reaction to a heat stimulus.
The next series deals with T2, rat NTR1 (Rattus norvegicus, UniProt P20789).
T2 construct: expressed in transfected cells; host or cells: CHO-K1
The series is described as follows: Competition binding with [3H]NT, membranes of CHO-K1 cells transfected with rat NTR1. As to the method:
as §1, §2, §3

Series [4] in a line: Catalepsy bar test in rats. Type of series: in vivo, rat. As to the method: The following experiments were performed to assess the ability of NT69L to cause and influence catalepsy. Male Sprague-Dawley rats (150–250 g) or CD-1 mice (24–26 g) were housed in a temperature-controlled room in groups of five with free access to food and water. The animals were kept on a 12 hour light/dark cycle, and all tests were performed during the light cycle. […] Thirty minutes after injection, the animals were tested for catalepsy. For rats, the test involved simply placing the animal's fore paws on a suspended metal bar 10 mm in diameter, 11 cm above the counter. The time elapsed until the animal's fore paws touch the counter was recorded. […] The cut-off time was 20 seconds, and each animal was tested three times for each time point.

Setting [5] is: CHO cells, read-out: Kd hNTR (Table VII).
The mark [6] stands for this setting: 0.5 mg/kg intraperitoneal (footnote), rats.

Read-outs that look alike come from different tables or passages of the source. Numbered stars: 1 amine (or outer) side, 2 acyl side, 3 side chain; on linkers, the order of the positions; unused ones are H or OH. Square brackets hold non-standard residues; d marks the D form. Ends that are not written are not given here. Peptide text beside a SMILES is read from it. Ala(indol-4-yl) = N[C@@H](Cc1cccc2[nH]ccc12)C(=O)O; X1 = O=C([C@@H](Cc1cccc2[nH]ccc12)N[*:1])[*:2]; Tle = CC(C)(C)[C@H](N)C(=O)O; dOrn = NCCC[C@@H](N)C(=O)O Where only a bound is given, the exact number is not on record here.

Here are results for nine compounds from patent US7098307B2, “Neo-tryptophan” (Mayo Foundation for Medical Education and Research, priority 1998, dated 2006).

The Kd is the constant that tells how readily two partners part at equilibrium. One may read the ED50 as the dose at which the effect has come halfway, by size or by number of responders.

As for `N[C@@H](Cc1cccc2[nH]ccc12)C(=O)O` [L-neo-Trp, (2S)-2-amino-3-(1H-4-indolyl)propanoic acid], the Kd on 5HT2A receptor and at human NTR1 (setting [5]) was over 100 µM each time. Also, the “competition with labeled ketanserin for binding at the 5HT2A receptor” value (“competition with labeled ketanserin” below) at 5HT2A receptor is listed as “did not compete”. In addition, the “binding to human NT receptors from CHO cells” value on human NTR1 is “does not bind”.
As for `CC[C@H](C)[C@H](NC(=O)[C@H](Cc1cccc2[nH]ccc12)NC(=O)[C@@H]1CCCN1C(=O)[C@H](CCCNC(=N)N)NC(=O)[C@@H](N)CCCNC(=N)N)C(=O)N[C@@H](CC(C)C)C(=O)O` [NT64L], the half-life at 0.5 mg/mL in series [1] (25% plasma, 37° C., 0.5 mg/mL polypeptide, read-out: half-time, Plasma Human (converted)) is 84 min. In addition, in series [2], the “peak body temperature reduction” value came to 2.1 °C and the induction of hypothermia entry is listed as “did not induce”. Further, at 5HT2A receptor, binding was characterised by a dissociation constant (Kd) of 6.6 µM and the “competition with labeled ketanserin” value is reported as “found to compete”. In series [3], the “peak % MPE value” amounted to 76% and the “induction of antinociception (hot plate)” value was “did not induce”.
As to `NCCc1c[nH]c2ccc(O)cc12` [Serotonin, reference compound], the Kd is over 100000 nM at rat NTR1 (CHO cells, read-out: Kd rNTR (Table VII)) and over 100 µM on human NTR1 (setting [5]).
Take `CC[C@H](C)[C@H](NC(=O)[C@H](Cc1ccc(O)cc1)NC(=O)[C@@H]1CCCN1C(=O)[C@H](CCCNC(=N)N)NC(=O)[C@H](N)CCCCN)C(=O)N[C@@H](CC(C)C)C(=O)O` [NT2, reference compound] (H-[dK]RPYIL-OH; N-terminus and C-terminus assumed): the “half-time, Plasma Human” value in series [1] is given as “about 0.85 hours”. For the same compound, the half-life at 0.5 mg/mL in series [1] (plasma) was 51 min. Further, the “competition with labeled ketanserin” value at 5HT2A receptor was “found to compete”.
`CN1CCN(C2=Nc3cc(Cl)ccc3Nc3ccccc32)CC1` [Clozapine, reference compound]: in series [4] (20 mg/kg ip), the catalepsy entry is given as “did not cause catalepsy”. The Kd at human NTR1 (setting [5]) is over 100 µM.
Turning to `CC(C)C[C@H](NC(=O)[C@@H](NC(=O)[C@H](Cc1cccc2[nH]ccc12)NC(=O)[C@@H]1CCCN1C(=O)[C@H](CCCNC(=N)N)NC(=O)[C@@H](N)CCCNC(=N)N)C(C)(C)C)C(=O)O` [NT65L] (H-RRP[Ala(indol-4-yl)][Tle]L-OH; N-terminus and C-terminus assumed), the half-life at 0.5 mg/mL in series [1] (plasma) is 66 min. In addition, at human NTR1 (NT receptor binding), the “reduction in binding affinity compared to NT64L” value stood at 3 fold.
Turning to `O=C(CCCN1CCC(O)(c2ccc(Cl)cc2)CC1)c1ccc(F)cc1` [Haloperidol, reference compound], the catalepsy result in series [4] (1 mg/kg ip) was “profound catalepsy”. Besides, the ED50 at 30 min in series [4] (male, Sprague-Dawley, rat, in vivo, ip, at 30 minutes, read-out: ED50 haloperidol-induced catalepsy) amounted to 0.13 mg/kg. The ED50 at 60 min in series [4] (male, Sprague-Dawley, rat, in vivo, ip, at 60 minutes, read-out: ED50 haloperidol-induced catalepsy) stood at 0.26 mg/kg. Moreover, in series [4] (male, Sprague-Dawley, rat, in vivo, ip, at 180 minutes, read-out: ED50 haloperidol-induced catalepsy), the ED50 at 180 min was 0.31 mg/kg.
As for “NT24″27″: L-Arg-D-Orn-L-Pro-L-Tyr-L-Ile-L-Leu (R[dOrn]PYIL) [reference compound]”, in series [2], the “peak body temperature reduction” value worked out at 1.1 °C and the induction of hypothermia result is “did not induce”. For the same compound, in series [3], the “peak % MPE value” is reported as 20% and the “induction of antinociception (hot plate)” value is on record as “did not induce”.
With `CC(C)C[C@H](NC(=O)[C@@H](NC(=O)[C@@H](Cc1cccc2[nH]ccc12)NC(=O)[C@@H]1CCCN1C(=O)[C@H](CCCNC(=N)N)NC(=O)[C@H](N)CCCCN)C(C)(C)C)C(=O)O` [NT66D] (H-[dK]RP[X1][Tle]L-OH; N-terminus and C-terminus assumed), in series [2] (setting [6]), the “Peak BT change” value is on record as −1.0 @ ° C and the “time of Peak BT change” value is 30 min. Further, in series [2], the induction of hypothermia result is listed as “did induce”. Binding at rat NTR1 was put at a Kd of 77 ± 9 nM. Moreover, in series [3] (setting [6]), the “Peak % MPE” value turned out to be 58% @ and the “time of Peak % MPE” value was found to be 30 min. In addition, the “induction of antinociception (hot plate)” value in series [3] was “did induce”. The same compound had a Kd on human NTR1 of 0.21 ± 0.02 µM.
